Species on record: Rattus norvegicus
Test: DrugMatrix - Regimen: Daily Repeat
Format: toxicity, organism-based, Sprague-Dawley
Design: regimen Daily Repeat, gender Male, age 6-8 weeks
Settings: in vivo, po, route oral GAVAGE, vehicle 100 % WATER; for ABSOLUTE BASOPHIL / ABSOLUTE EOSINOPHIL / ABSOLUTE LYMPHOCYTE / ABSOLUTE MONOCYTE / ABSOLUTE SEGMENTED NEUTROPHIL / BASOPHIL / EOSINOPHIL / ERYTHROCYTE COUNT / HEMATOCRIT / HEMOGLOBIN / LEUKOCYTE COUNT / LYMPHOCYTE / MEAN CORPUSCULAR HEMOGLOBIN / MEAN CORPUSCULAR HEMOGLOBIN CONCENTRATION / MEAN CORPUSCULAR VOLUME / MONOCYTE / NEUTROPHIL / NUCLEATED RED BLOOD CELLS / PLATELET COUNT: tissue Blood; for ALANINE AMINOTRANSFERASE / ALBUMIN / ALKALINE PHOSPHATASE / ASPARTATE AMINOTRANSFERASE / BLOOD UREA NITROGEN / CARBON DIOXIDE / CHLORIDE / CHOLESTEROL / CREATINE PHOSPHOKINASE / CREATININE / GLUCOSE / LACTATE DEHYDROGENASE / LIPASE / PHOSPHORUS / POTASSIUM / SODIUM / TOTAL BILIRUBIN / TOTAL PROTEIN / URIC ACID: tissue Plasma
[1] = 0 mg/kg, 72 h, dose level Control, time 3 day
[2] = 0 mg/kg, 120 h, dose level Control, time 5 day
[3] = 15 mg/kg, 72 h, dose level Low, time 3 day

## NNC(=O)c1ccncc1 [ISONIAZID]
[1]
  ABSOLUTE BASOPHIL: 0 CELLS/uL
  ABSOLUTE EOSINOPHIL: 46 CELLS/uL
  ABSOLUTE LYMPHOCYTE: 10225.67 CELLS/uL
  ABSOLUTE MONOCYTE: 319.33 CELLS/uL
  ABSOLUTE SEGMENTED NEUTROPHIL: 1242.33 CELLS/uL
  BASOPHIL: 0%
  EOSINOPHIL: 0.33%
  ERYTHROCYTE COUNT: 5.17 x10E6/uL
  HEMATOCRIT: 33.43%
  HEMOGLOBIN: 12.55 G/DL
  LEUKOCYTE COUNT: 11.83 x10E3/uL
  LYMPHOCYTE: 86.5%
  MEAN CORPUSCULAR HEMOGLOBIN: 24.35 pg
  MEAN CORPUSCULAR HEMOGLOBIN CONCENTRATION: 37.57 G/DL
  MEAN CORPUSCULAR VOLUME: 64.8 fL
  MONOCYTE: 2.67%
  NEUTROPHIL: 10.5%
  NUCLEATED RED BLOOD CELLS: 0.17 /100WBC
  PLATELET COUNT: 1026.17 x10E3/uL
  ALANINE AMINOTRANSFERASE: 52.67 u/L
  ALBUMIN: 4.17 G/DL
  ALKALINE PHOSPHATASE: 331 u/L
  ASPARTATE AMINOTRANSFERASE: 92.33 u/L
  BLOOD UREA NITROGEN: 15.33 mg/dL
  CARBON DIOXIDE: 26.17 mmol/L
  CHLORIDE: 103.17 MEQ/L
  CHOLESTEROL: 73.67 mg/dL
  CREATINE PHOSPHOKINASE: 472.83 u/L
  CREATININE: 0.29 mg/dL
  GLUCOSE: 178.5 mg/dL
  LACTATE DEHYDROGENASE: 244.83 u/L
  LIPASE: 10.67 u/L
  PHOSPHORUS: 12.45 mg/dL
  POTASSIUM: 6.35 MEQ/L
  SODIUM: 144.27 MEQ/L
  TOTAL BILIRUBIN: 0.13 mg/dL
  TOTAL PROTEIN: 5.77 G/DL
  URIC ACID: 2.08 mg/dL
[2]
  ABSOLUTE BASOPHIL: 0 CELLS/uL
  ABSOLUTE EOSINOPHIL: 23.5 CELLS/uL
  ABSOLUTE LYMPHOCYTE: 12797.33 CELLS/uL
  ABSOLUTE MONOCYTE: 465.5 CELLS/uL
  ABSOLUTE SEGMENTED NEUTROPHIL: 1313.67 CELLS/uL
  BASOPHIL: 0%
  EOSINOPHIL: 0.17%
  ERYTHROCYTE COUNT: 5.76 x10E6/uL
  HEMATOCRIT: 36.72%
  HEMOGLOBIN: 13.72 G/DL
  LEUKOCYTE COUNT: 14.6 x10E3/uL
  LYMPHOCYTE: 87.5%
  MEAN CORPUSCULAR HEMOGLOBIN: 23.8 pg
  MEAN CORPUSCULAR HEMOGLOBIN CONCENTRATION: 37.35 G/DL
  MEAN CORPUSCULAR VOLUME: 63.72 fL
  MONOCYTE: 3.17%
  NEUTROPHIL: 9.17%
  NUCLEATED RED BLOOD CELLS: 0.33 /100WBC
  PLATELET COUNT: 1270.67 x10E3/uL
  ALANINE AMINOTRANSFERASE: 50.5 u/L
  ALBUMIN: 4.32 G/DL
  ALKALINE PHOSPHATASE: 339.67 u/L
  ASPARTATE AMINOTRANSFERASE: 88 u/L
  BLOOD UREA NITROGEN: 17 mg/dL
  CARBON DIOXIDE: 25 mmol/L
  CHLORIDE: 103.83 MEQ/L
  CHOLESTEROL: 71.33 mg/dL
  CREATINE PHOSPHOKINASE: 281.83 u/L
  CREATININE: 0.26 mg/dL
  GLUCOSE: 161.67 mg/dL
  LACTATE DEHYDROGENASE: 191.17 u/L
  LIPASE: 10.17 u/L
  PHOSPHORUS: 11.72 mg/dL
  POTASSIUM: 6.76 MEQ/L
  SODIUM: 145.17 MEQ/L
  TOTAL BILIRUBIN: 0.2 mg/dL
  TOTAL PROTEIN: 6.15 G/DL
  URIC ACID: 2 mg/dL
[3]
  ABSOLUTE BASOPHIL: 0 CELLS/uL
  ABSOLUTE EOSINOPHIL: 0 CELLS/uL
  ABSOLUTE LYMPHOCYTE: 12954 CELLS/uL
  ABSOLUTE MONOCYTE: 520 CELLS/uL
  ABSOLUTE SEGMENTED NEUTROPHIL: 1492.67 CELLS/uL
  BASOPHIL: 0%
  EOSINOPHIL: 0%
  ERYTHROCYTE COUNT: 5.66 x10E6/uL
  HEMATOCRIT: 34.97%
  HEMOGLOBIN: 13.17 G/DL
  LEUKOCYTE COUNT: 14.97 x10E3/uL
  LYMPHOCYTE: 86.33%
  MEAN CORPUSCULAR HEMOGLOBIN: 23.27 pg
  MEAN CORPUSCULAR HEMOGLOBIN CONCENTRATION: 37.67 G/DL
  MEAN CORPUSCULAR VOLUME: 61.73 fL
  MONOCYTE: 3.67%
  NEUTROPHIL: 10%
  NUCLEATED RED BLOOD CELLS: 0 /100WBC
  PLATELET COUNT: 1157.33 x10E3/uL
  ALANINE AMINOTRANSFERASE: 52.67 u/L
  ALBUMIN: 4.23 G/DL
  ALKALINE PHOSPHATASE: 369.67 u/L
  ASPARTATE AMINOTRANSFERASE: 95.67 u/L
  BLOOD UREA NITROGEN: 14.33 mg/dL
  CARBON DIOXIDE: 26 mmol/L
  CHLORIDE: 102.33 MEQ/L
  CHOLESTEROL: 93.67 mg/dL
  CREATINE PHOSPHOKINASE: 235.67 u/L
  CREATININE: 0.28 mg/dL
  GLUCOSE: 155 mg/dL
  LACTATE DEHYDROGENASE: 140.33 u/L
  LIPASE: 12 u/L
  PHOSPHORUS: 12.77 mg/dL
  POTASSIUM: 6.52 MEQ/L
  SODIUM: 144.23 MEQ/L
  TOTAL BILIRUBIN: 0.2 mg/dL
  TOTAL PROTEIN: 5.83 G/DL
  URIC ACID: 1.4 mg/dL

Reference: ChEMBL document CHEMBL3885881, “DrugMatrix”
